# Results: US20120095108A1, “COMPOSITION CONTAINING MICROBIAL ZEAXANTHIN AND PREPARATION THEREOF” (Vigenent Inc., priority 2010, published 2012)
# Columns and labels:
# [1] = Lipid peroxidation inhibitory activity, ferric thiocyanate method; assay type: biochemical; settings: 60 μg/ml; OD 500 nm; 24 hours incubation 37° C.
# Experimental: Microbial zeaxanthin was dissolved in 0.2 M potassium phosphate buffer and mixed with linoleic acid emulsion mixture prepared by potassium phosphate buffer. After 24 hours incubation in 37° C., the mixture was added with 75% ethanol, ammonium thiocyanate, and iron(II) chloroide tetrahydrate. The absorbance at 500 nm was determined after 1 min incubation. Inhibtion activity=[1−(Abs of sample/Abs of blank)]*100%.
# [2] = Lipid peroxidation inhibitory activity, conjugated diene method; assay type: biochemical; settings: 30 μg/ml; OD 234 nm; 15 hour incubation 37° C.
# Experimental: Microbial zeaxanthin was dissolved in 0.2 M potassium phosphate buffer and mixed with linoleic acid emulsion mixture prepared by potassium phosphate buffer. The absorbance of 234 nm was determined after 15 hour incubation in 37° C. Inhibition activity=[1−(Abs of sample/Abs of blank)]*100%.
# [3] = test system: Human skin fibroblast cells (CCD-966SK cell line); assay: Photoprotection activity: viability of UV-irradiated human skin fibroblast cells; assay type: cell-based; settings: 15 min UV irradiation, determined at 24 hours
# Experimental: Human skin fibroblast cells (CCD-966SK cell line) were cultured on the dish. The cells were treated with microbial zeaxanthin dissolved in dimethyl sulfoxide. After treated for 24 hours the dishes were irradiated UV for 15 min and the cells were incubated for 24 hours. The cells were detached by trypsin and counted by hemocytometer. The protection effect of microbial zeaxanthin on the viability of fibroblast cells is provided (FIG. 3).
# Skin fibroblast cells, the essential cells of skin, are responsible for the production of collagen, a structural component of the skin (Stanley et al., (1985) J Invest Dermatol. 85:542-545; Olsen et al., (1989) J. Clin. Invest. 83: 791-795; Akagi et al., (1999) J. Invest. Dermatol. 113: 246-250). Collagen reduction is a biological phenomenon responsible for the wrinkled appearance found in the aged skin caused either intrinsic (chronologic aging) or extrinsic (e.g., photoaging: exposure to UV irradiation) (Burke et al., (1994) Exp Gerontol 29:37-53; Fisher et al., (1997) New Eng J Med 337:1419-1428; Fligiel et al., (2003) J Invest Dermatol. 120:842-848; Varani et al., (2006) Am J Pathol. 168:1861-8; Chauhan and Shakya, (2009) Indian J Dermatol Venereol Leprol. 75:463-8). […]
# [4] = Lipid peroxidation inhibitory activity, liposome-TBARS method; assay type: biochemical; settings: OD 532 nm
# Experimental: Microbial zeaxanthin was dissolved in methanol and mixed with liposome emulsion, iron(III) chloride, and ascorbic acid. After 2 hours water bath in 37° C. the mixture was added with butylated hydorxytoluene, thibarbituric acid, and trichloroacetic acid. After 20 min of water bath (100° C.), the mixture was chilled with ice. The absorbance at 532 nm was determined. MDA (malondialdehyde) inhibiton activity=[1−(Abs of sample/Abs of blank)]*100%.
# [5] = Total antioxidant activity, TEAC (trolox equivalent antioxidant capacity) method; assay type: biochemical; settings: OD 734 nm
# Experimental: Microbial zeaxanthin was dissolved in 0.01M sodium phosphate buffer and mixed with 2,2′-azino-bis(3-ethylbenzthiazoline-6-sulphonic acid) containing potassium persulfate. The absorbance at 734 nm was determined after 30 min incubation. Inhibition activity=[1−(Abs of sample/Abs of blank)]*100%.
# [6] = Antioxidant activity, DPPH free radical scavenging method; assay type: biochemical; settings: OD 517 nm
# Experimental: Microbial zeaxanthin was dissolved in methanol and mixed with 2,2-diphenyl-1-picrylhydrazyl in methanol. The absorbance at 517 nm was determined after 30 min incubation. Inhibition activity=[1−(Abs of sample/Abs of blank)]*100%.
# B16/F10 melanoma cells = assay: Melanin content in melanoma cells; assay type: cell-based; settings: Mus musculus, OD 400 nm; for inhibition at 2 µg/mL: 2 μg/ml; for inhibition at 20 µg/mL: 20 μg/ml
# Experimental: B16 F0 mouse melanoma cells were cultured on the dish. The cells were treated with microbial zeaxanthin dissolved in dimethyl sulfoxide. After treated for 24 hrs and 48 hrs, respectively, the medium was removed and the cells were washed with PBS and then dissolved in 1 N NaOH containing 10% DMSO. The relative melanin content was determined at OD400 nm.
# [7] = cited from earlier work
# [8] = test system: prostate carcinoma (PC-3); assay: Anti-proliferation MTT assay, PC-3; assay type: cell-based; settings: Homo sapiens, 24 hrs, read-out: cell viability
# Experimental: (§1) Cancer cells were cultured on a dish, and the cells were treated with microbial zeaxanthin dissolved in dimethyl sulfoxide. After 24 hrs incubation, thiazolyl blue tetrazolium bromide was added to the cells and incubated for 4 hours. The medium was removed and the crystals were dissolved in dimethyl sulfoxide followed by measuring the absorbance at 590 nm. Cell viability=(Abs of cell treated zeaxanthin/Abs of cell with no treatment)*100%. Since xanthophylls have been reported to be associated with lower risk of cancers (Orjuela et al., (2005) Cancer Epidemiol Biomarkers Prey. 14:1433-40; Kelemen et al., (2006) Am J Clin Nutr. 83: 1401-10; Zhang et al., (2007) Nutr Cancer. 59:46-53; Tamimi et al., (2009) Cancer Res. 69: 9323-9; Lee et al., (2009) Cancer Epidemiol Biomarkers Prey. 18:1730-9), it is necessary to determine if the microbial zeaxanthin contains anti-cancer activity. […] For comparison, the cell viabilities of non-cancer cells are 105.6% for retinal pigmented epithelium cell (ARPE-19); 102.3% for embryonic fibroblast (BCRC60118) and 95.8% for human skin fibroblast (BCRC 60153). […] For comparison, the cell viabilities of non-cancer cells are 124.2% for retinal pigmented epithelium cell (ARPE-19); 101.2% for embryonic fibroblast (BCRC60118) and 99.8% for human skin fibroblast (BCRC 60153). […]
# [9] = test system: colorectal adenocarcinoma (LS123); assay: Anti-proliferation MTT assay, LS123; assay type: cell-based; settings: Homo sapiens, 24 hrs, read-out: cell viability
# Experimental: as §1
# [10] = test system: gastric adenocarcinoma (AGS); assay: Anti-proliferation MTT assay, AGS; assay type: cell-based; settings: Homo sapiens, 24 hrs, read-out: cell viability
# Experimental: as §1
# [11] = test system: breast adenocarcinoma (MCF7); assay: Anti-proliferation MTT assay, MCF7; assay type: cell-based; settings: Homo sapiens, 24 hrs, read-out: cell viability
# Experimental: as §1
# [12] = test system: ovarian cancer (TOV-112D); assay: Anti-proliferation MTT assay, TOV-112D; assay type: cell-based; settings: Homo sapiens, TOV112D, 24 hrs, read-out: cell viability
# Experimental: as §1
# [13] = test system: pharynx squamous cell carcinoma (FaDu); assay: Anti-proliferation MTT assay, FaDu; assay type: cell-based; settings: Homo sapiens, 24 hrs
# Experimental: as §1
# [14] = test system: pancreatic adenocarcinoma (BxPC-3); assay: Anti-proliferation MTT assay, BxPC-3; assay type: cell-based; settings: Homo sapiens, 24 hrs, read-out: cell viability
# Experimental: as §1
# choriocarcinoma (JAR) = assay: Anti-proliferation MTT assay, JAR; assay type: cell-based; settings: Homo sapiens, 24 hrs, read-out: cell viability
# Experimental: as §1
# [15] = test system: bladder primary carcinoma (5637); assay: Anti-proliferation MTT assay, 5637; assay type: cell-based; settings: Homo sapiens, 24 hrs, read-out: cell viability
# Experimental: as §1
# [16] = test system: thyroid squamous cell carcinoma (SW579); assay: Anti-proliferation MTT assay, SW579; assay type: cell-based; settings: Homo sapiens, 24 hrs
# Experimental: as §1
# [17] = MTT assay, non-cancer cells ARPE-19; assay type: cell-based; settings: human, ARPE-19 retinal pigmented epithelium cells (non-cancer), read-out: cell viability of non-cancer cells
# Experimental: as §1
# [18] = MTT assay, non-cancer cells BCRC60118; assay type: cell-based; settings: human, embryonic fibroblast cells BCRC60118 (non-cancer), read-out: cell viability of non-cancer cells
# Experimental: as §1
# [19] = MTT assay, non-cancer cells BCRC 60153; assay type: cell-based; settings: human, skin fibroblast cells BCRC 60153 (non-cancer), read-out: cell viability of non-cancer cells
# Experimental: as §1
smiles,measurement,setting,value
"CC1=C[C@H](O)CC(C)(C)[C@H]1/C=C/C(C)=C/C=C/C(C)=C/C=C/C=C(C)/C=C/C=C(C)/C=C/C1=C(C)C[C@@H](O)CC1(C)C [lutein, reference compound]",lipid peroxidation inhibitory activity (ferric thiocyanate method),[1],68.6%
same,lipid peroxidation inhibitory activity (conjugated diene method),[2],68.7%
"CC1=C(/C=C/C(C)=C/C=C/C(C)=C/C=C/C=C(C)/C=C/C=C(C)/C=C/C2=C(C)C[C@@H](O)CC2(C)C)C(C)(C)C[C@H](O)C1 [microbial zeaxanthin, 4-[18-(4-hydroxy-2,6,6-trimethyl-1-cyclohexenyl)-3,7,12,16-tetramethyl-octadeca-1,3,5,7,9,11,13,15,17-nonaenyl]-3,5,5-trimethyl-cyclohex-3-en-1-ol]",cell viability increased as compared to no zeaxanthin treatment,[3]; 20 μg/ml,18.9%
same,cell viability increased as compared to no zeaxanthin treatment,[3]; 50 μg/ml,33.7%
same,lipid peroxidation inhibitory activity (ferric thiocyanate method),[1],66.9%
same,lipid peroxidation inhibitory activity (conjugated diene method),[2],67.4%
same,inhibition on free MDA formation,[4]; 125 μg/ml,55.23%
same,inhibition on free MDA formation,[4]; 250 μg/ml,61.05%
same,inhibition on free MDA formation,[4]; 500 μg/ml,71.16%
same,inhibition on free MDA formation,[4]; 1000 μg/ml,78.45%
same,inhibition on free MDA formation,[4]; 2000 μg/ml,80.75%
same,inhibition on absorbance (TEAC),[5]; 62.5 μg/ml,15.68%
same,inhibition on absorbance (TEAC),[5]; 125 μg/ml,28.13%
same,inhibition on absorbance (TEAC),[5]; 250 μg/ml,53.35%
same,inhibition on absorbance (TEAC),[5]; 500 μg/ml,91.22%
same,inhibition on absorbance (DPPH),[6]; 62.5 μg/ml,10.02%
same,inhibition on absorbance (DPPH),[6]; 125 μg/ml,13.04%
same,inhibition on absorbance (DPPH),[6]; 250 μg/ml,30.18%
same,inhibition on absorbance (DPPH),[6]; 500 μg/ml,48.20%
same,inhibition on absorbance (DPPH),[6]; 1000 μg/ml,96.69%
same,inhibition at 2 µg/mL,B16/F10 melanoma cells; 24 hrs,6.74%
same,inhibition at 2 µg/mL,B16/F10 melanoma cells; 48 hrs,32.5%
same,inhibition at 20 µg/mL,B16/F10 melanoma cells; 24 hrs,22.7%
same,inhibition at 20 µg/mL,B16/F10 melanoma cells; 48 hrs,36.7%
same,Solubility in chloroform,[7]; chloroform,soluble giving a clear intensive orange-red
same,Solubility in ethanol,[7]; ethanol,sparingly
same,Solubility in water,[7]; water,insoluble
"CC1=C(/C=C/C(C)=C/C=C/C(C)=C/C=C/C=C(C)/C=C/C=C(C)/C=C/C2=C(C)C[C@@H](O)CC2(C)C)C(C)(C)C[C@H](O)C1 (stereo in doubt) [microbial zeaxanthin, 4-[18-(4-hydroxy-2,6,6-trimethyl-1-cyclohexenyl)-3,7,12,16-tetramethyl-octadeca-1,3,5,7,9,11,13,15,17-nonaenyl]-3,5,5-trimethyl-cyclohex-3-en-1-ol]",viability at 30 µg/mL,[8]; 30 μg/ml,74%
same,viability at 60 µg/mL,[8]; 60 μg/ml,67.7%
same,viability at 30 µg/mL,"[9]; LS-123, 30 μg/ml",72.3%
same,viability at 60 µg/mL,"[9]; LS-123, 60 μg/ml",75.3%
same,viability at 30 µg/mL,[10]; 30 μg/ml,57.3%
same,viability at 60 µg/mL,[10]; 60 μg/ml,40.1%
same,viability at 30 µg/mL,[11]; 30 μg/ml,78.7%
same,viability at 60 µg/mL,[11]; 60 μg/ml,61.6%
same,viability at 30 µg/mL,[12]; 30 μg/ml,70.3%
same,viability at 60 µg/mL,[12]; 60 μg/ml,20.3%
same,viability at 30 µg/mL,[13]; 30 μg/ml,72.6%
same,viability at 60 µg/mL,[13]; 60 μg/ml,28.5%
same,viability at 30 µg/mL,[14]; 30 μg/ml,75.6%
same,viability at 60 µg/mL,[14]; 60 μg/ml,33.4%
same,viability at 30 µg/mL,choriocarcinoma (JAR); 30 μg/ml,72.1%
same,viability at 60 µg/mL,choriocarcinoma (JAR); 60 μg/ml,40%
same,viability at 30 µg/mL,[15]; 30 μg/ml,45.9%
same,viability at 60 µg/mL,[15]; 60 μg/ml,16.4%
same,viability at 30 µg/mL,[16]; 30 μg/ml,70.9%
same,viability at 60 µg/mL,[16]; 60 μg/ml,71.7%
same,"viability at 24 h, 30 μg/ml",[17]; 30 μg/ml,106%
same,"viability at 24 h, 60 μg/ml",[17]; 60 μg/ml,124%
same,"viability at 24 h, 30 μg/ml",[18]; 30 μg/ml,102%
same,"viability at 24 h, 60 μg/ml",[18]; 60 μg/ml,101%
same,"viability at 24 h, 30 μg/ml",[19]; 30 μg/ml,95.8%
same,"viability at 24 h, 60 μg/ml",[19]; 60 μg/ml,99.8%
